The record followed here is ChEMBL document CHEMBL1145143, “5'-Homoaristeromycin. Synthesis and antiviral activity against orthopox viruses” (Bioorg Med Chem Lett, 2005).

≈ marks a conversion by molar mass, not a printed value.

A short description of assay [1]: Concentration required for 50% inhibition of adohcy hydrolase by the compound against monkeypox virus in vero 76 cells. The assay is classed as functional, cell-based.
In assay [2] the test system is Cowpox virus. The assay is described as follows: Concentration required for 50% inhibition of adohcy hydrolase by the compound against cowpox virus in vero 76 cells. Format: functional, organism-based.
Assay [3] in a line: Cytotoxic concentration against cowpox, monkeypox and vaccinia virus in vero 76 cells. The assay is classed as functional. Conditions: Orthopoxvirus vaccinia.
The subject of assay [4] is Vaccinia virus. Description: Concentration required for 50% inhibition of adohcy hydrolase by the compound against vaccinia virus in vero 76 cells. Conditions: Orthopoxvirus vaccinia. Format: functional, organism-based.

A word on the IC50: it is the point on the concentration scale where inhibition reaches its midpoint. Broadly, the CC50 is the concentration that lowers cell viability or growth by half. Low values mean harm at low concentration, high ones better tolerance by the cells. With `Nc1ncnc2c1ncn2[C@@H]1C[C@H](CCO)[C@@H](O)[C@H]1O`, the IC50 in assay [1] was 0.12 µg/mL (≈ 0.43 µM); in assay [2], 0.12 µg/mL (≈ 0.43 µM); in assay [4], 1.2 µg/mL (≈ 4.3 µM). For the same compound, the CC50 in assay [3] was more than 100 µg/mL.
